The target in assay [1] is T1, 5-HT2A receptor (Homo sapiens, UniProt P28223). Nature of the assay: Binding to the 5-HT2A receptor, [125I]-DOI, CHO cell line (Method (c)). Also noted: expressed in transfected cells; host or cells: CHO cell line. Conditions: read-out: Ki (2A). How it is done:
(§1) The binding of compounds of formula (I) to serotonin receptors was determined in vitro by standard methods. The activity of the test compounds was investigated in accordance with the assays given below.
Method (c): For the binding to the 5-HT2A receptor, the 5-HT2A receptors were radiolabeled with [^125I]-DOI. The affinity of the compounds for 5-HT2A receptors in a CHO cell line was determined according to the procedure of D. J. McKenna and S. J. Peroutka, J. Neurosci., 1989, 9, 3482–90.

Assay [2] concerns the target T2, 5-HT2C receptor (Homo sapiens, UniProt P28335). Nature of the assay: Functional activity, FLIPR calcium assay, CHO cells expressing human 5-HT2C. Conditions: for h5-HT2C Rel. Eff.: relative efficacy vs response to 10 μM 5-HT (defined as 100%). Also noted: expressed in transfected cells; host or cells: CHO cells. Format: cell-based. How it is done:
(§2) The functional activity of compounds of formula (I) was assayed using a Fluorimetric Imaging Plate reader (FLIPR). CHO cells expressing the human 5-HT2C or human 5-HT2A receptors were counted and plated into standard 96 well microtitre plates on the day before testing to give a confluent monolayer. The cells were then dye loaded with the calcium sensitive dye, Fluo-3-AM. Unincorporated dye was removed using an automated cell washer to leave a total volume of 100 μL/well of assay buffer (Hanks balanced salt solution containing 20 mM Hepes and 2.5 mM probenecid). The drug (dissolved in 50 μL of the assay buffer) was added at a rate of 70 μL/sec to each well of the FLIPR 96 well plate during fluorescence measurements. The measurements were taken at 1 sec intervals and the maximum fluorescent signal was measured (approx 10–15 secs after drug addition) and compared with the response produced by 10 μM 5-HT (defined as 100%) to which it was expressed as a percentage response (relative efficacy). Dose response curves were constructed using Graphpad Prism (Graph Software Inc.).

Assay [3] addresses T2, 5-HT2C receptor. Nature of the assay: Binding to the 5-HT2C receptor, [3H]-5-HT, CHO cell line (Method (a)). On the set-up: expressed in transfected cells; host or cells: CHO cell line. How it is done:
as §1
Method (a): For the binding to the 5-HT2C receptor, the 5-HT2C receptors were radiolabeled with [^3H]-5-HT. The affinity of the compounds for 5-HT2C receptors in a CHO cell line was determined according to the procedure of D. Hoyer, G. Engel and H. O. Kalkman, European J. Pharmacol., 1985, 118, 13–23.

For the next assay, the target named is T3, human 5-HT2B receptors (Homo sapiens, UniProt P41595).
T3 construct: expressed in transfected cells; host or cells: CHO cell line
T3 sequence (P41595 whole entry): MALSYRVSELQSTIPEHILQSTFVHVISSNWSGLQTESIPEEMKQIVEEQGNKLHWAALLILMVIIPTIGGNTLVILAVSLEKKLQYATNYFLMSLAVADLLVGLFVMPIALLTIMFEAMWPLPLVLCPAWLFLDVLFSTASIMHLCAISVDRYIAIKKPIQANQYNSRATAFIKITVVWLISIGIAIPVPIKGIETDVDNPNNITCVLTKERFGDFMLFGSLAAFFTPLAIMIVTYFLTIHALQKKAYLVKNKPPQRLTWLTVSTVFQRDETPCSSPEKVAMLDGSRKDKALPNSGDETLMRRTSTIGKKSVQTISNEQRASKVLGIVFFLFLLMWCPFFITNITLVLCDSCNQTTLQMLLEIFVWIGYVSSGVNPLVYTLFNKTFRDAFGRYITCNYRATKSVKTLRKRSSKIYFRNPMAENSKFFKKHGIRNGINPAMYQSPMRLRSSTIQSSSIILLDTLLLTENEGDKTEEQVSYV
Nature of the assay: Binding to the 5-HT2B receptor, [3H]-5-HT, CHO cell line (Method (b)). Conditions: human 5-HT2B in CHO cell line, read-out: Ki (2B). How it is done: as §1
Method (b): For the binding to the 5-HT2B receptor, the 5-HT2B receptors were radiolabeled with [^3H]-5-HT. The affinity of the compounds for human 5-HT2B receptors in a CHO cell line was determined according to the procedure of K. Schmuck, C. Ullmer, P. Engels and H. Lubbert, FEBS Lett., 1994, 342, 85–90.

Assay [4] concerns the target T1, 5-HT2A receptor. The experiment in a line: Functional activity, FLIPR calcium assay, CHO cells expressing human 5-HT2A. Format: cell-based. Also noted: expressed in transfected cells; host or cells: CHO cells. Conditions: for EC50: FLIPR, CHO cells expressing human 5-HT2A, read-out: h5-HT2A EC50; for h5-HT2A Rel. Eff.: relative efficacy vs response to 10 μM 5-HT (defined as 100%). How it is done: as §2

T1 sequence (P28223 whole entry): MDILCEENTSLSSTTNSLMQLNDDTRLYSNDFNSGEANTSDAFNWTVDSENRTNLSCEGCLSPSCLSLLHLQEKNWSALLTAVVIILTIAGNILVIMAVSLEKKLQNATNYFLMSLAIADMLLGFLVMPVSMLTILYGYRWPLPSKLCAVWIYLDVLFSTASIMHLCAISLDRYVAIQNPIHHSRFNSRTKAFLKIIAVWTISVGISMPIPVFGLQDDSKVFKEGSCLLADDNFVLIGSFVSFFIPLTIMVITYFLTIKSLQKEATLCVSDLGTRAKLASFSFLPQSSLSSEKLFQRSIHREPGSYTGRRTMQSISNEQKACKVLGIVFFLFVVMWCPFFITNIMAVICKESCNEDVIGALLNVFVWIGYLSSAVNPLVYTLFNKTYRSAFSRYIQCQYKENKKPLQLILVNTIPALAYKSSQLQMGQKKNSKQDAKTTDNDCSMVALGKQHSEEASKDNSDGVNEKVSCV
T2 sequence (P28335 33-458): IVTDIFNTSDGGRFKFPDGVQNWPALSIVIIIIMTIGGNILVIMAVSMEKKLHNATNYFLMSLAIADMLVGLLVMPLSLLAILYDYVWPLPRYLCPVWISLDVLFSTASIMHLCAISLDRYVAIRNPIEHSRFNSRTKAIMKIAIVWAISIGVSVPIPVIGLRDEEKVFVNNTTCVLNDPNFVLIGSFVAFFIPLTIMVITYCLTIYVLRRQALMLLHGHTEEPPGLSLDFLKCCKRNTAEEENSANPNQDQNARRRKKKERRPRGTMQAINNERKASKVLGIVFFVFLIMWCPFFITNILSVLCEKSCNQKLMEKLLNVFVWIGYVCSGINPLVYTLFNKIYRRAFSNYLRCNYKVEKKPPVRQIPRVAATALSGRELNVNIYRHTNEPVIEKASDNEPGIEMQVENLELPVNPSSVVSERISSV

As to `CCc1ccc2c(n1)N1[C@@H](CNC[C@H]1C)C2` [Example 9, (4R,9aR)-6-Ethyl-4-methyl-1,2,3,4,9,9a-hexahydro-2,4a,5-triaza-fluorene], the figures for the Ki on 5-HT2A receptor [1], at 5-HT2C receptor [3] and on human 5-HT2B receptors were 212 nM, 16.5 nM and 271 nM, respectively. Also, the values for the EC50 at 5-HT2C receptor [2] and on 5-HT2A receptor [4] were 85.4 nM and 644 nM, respectively. Further, the “h5-HT2C Rel. Eff.” value on 5-HT2C receptor [2] is on record as 91.4%. Besides, on 5-HT2A receptor [4], the “h5-HT2A Rel. Eff.” value was 29.6%.
`Cc1c2n(c3nc(Cl)ccc13)[C@H](C)CNC2` [Example 20, (R)-6-Chloro-4,9-dimethyl-1,2,3,4-tetrahydro-2,4a,5-triaza-fluorene]: the inhibition constant Ki stood at 178 nM on 5-HT2A receptor [1], 5.1 nM at 5-HT2C receptor [3] and 108 nM at human 5-HT2B receptors. In addition, the EC50 on 5-HT2C receptor [2] was found to be 7.6 nM; on 5-HT2A receptor [4] it was 11.1 nM. Moreover, the “h5-HT2C Rel. Eff.” value on 5-HT2C receptor [2] was determined as 93.3%. The “h5-HT2A Rel. Eff.” value at 5-HT2A receptor [4] is recorded as 12.0%.

As usually defined, the Ki is the equilibrium dissociation constant of an inhibitor or competing ligand from its target. Broadly, the EC50 is the concentration at which the effect is half-maximal.

(Values after patent US7098337B2, “1,2,3,4,9,9a-hexahydro-2,4a,5-triaza-fluorene and 1,2,3,4-tetrahydro-2,4a,5-triaza-fluorene derivatives” (priority 2002, dated 2006).)
